{
  "source": "patent US11944615B2",
  "about": "“Combination therapy for treatment of LKB1 deficient cancers” (New York University, priority 2020, dated 2024)",
  "key": {"KL allograft tumor": {"tested_on": "KL allograft tumor", "assay": "KL subcutaneous allograft tumor growth in syngeneic wild-type mice", "format": "in vivo", "details": "KL allograft implanted subcutaneously in right flank, single agent, I.P. 5 days/week", "excerpt": "FIG. 6. NAMPT inhibition reduced KL lung tumor growth in vivo. A) Lung tumor volume measurements of KL subcutaneous allograft tumors following treatment with indicated drugs. B) Average tumor volumes over time in KL tumors with indicated treatments. Arrow denotes treatment start time. C) Percent change in KL tumor volume after 6 days of treatment with indicated drugs. D) Images of subcutaneous KL tumor allografts at endpoint of treatment experiment. *P<0.05.\nAll animal experiments were reviewed and approved by the Institutional Animal Care and Use Committee (IACUC) at NYU Langone Health. For lung tumor growth assays, 10^6 KP and KL syngeneic mouse lung cancer cells were implanted into male C57BL/6 mice at 7 weeks of age via tail vein injection. After 8 weeks, mice were imaged by Mill to assess tumor volume. For drug treatment experiments, 10^6 KLA cells were injected subcutaneously in the right flank of female C57BL/6 mice at 7 weeks of age or injected via tail vein injection. […] Tumor volumes were measured using digital calipers or Mill. Mouse weights were measured weekly to adjust total dosage and assess the effects of drug combinations on mouse health. […]"}, "PD-L1": {"tested_on": "PD-L1", "assay": "Western blot of PD-L1 in KP cells with SIK or LKB1 knockout treated with NAM", "format": "cell-based, mouse", "protocol": "A) Western blot of indicated proteins in KL or KP cells with SIK or LKB1 knockout and treated with NAM or NAD^+ for 6 days.\nLung cancer cell lines were cultured in RPMI 1640 (Gibco, Thermo Fisher Scientific) supplemented with 10% fetal bovine serum (FBS, Gibco). The KPC Kras^LA1-G12D p53^−/− (KP) and KLA Kras^LA1-G12D;Lkb1^−/− (KL) murine lung cancer cell lines were generated by dissociation of KP and KL lung tumor nodules to single cell suspensions, seeded on tissue culture plates, and cultured in RPMI 1640 (Gibco, Thermo Fisher Scientific) supplemented with 10% fetal bovine serum (FBS, Gibco). […] All cells were cultured at 37° C. in a humidified incubator at 5% CO2 and verified on a weekly basis to be mycoplasma negative."}},
  "data": [
    {"compound": "O=C(/C=C/c1cccnc1)NCCCCC1CCN(C(=O)c2ccccc2)CC1", "note": "[FK866]", "values": [
      {"measurement": "tumor growth", "setting": "KL allograft tumor", "result": "reduced lung tumor growth only after 6 days of treatment"}
    ]},
    {"compound": "NC(=O)c1cccnc1", "note": "[NAM, nicotinamide]", "values": [
      {"measurement": "PD-L1 levels", "setting": "PD-L1; KP cells with SIK or LKB1 KO, NAM treatment for 6 days", "result": "marked reduction in PD-L1 levels"},
      {"measurement": "PD-L1 levels", "setting": "PD-L1; KP cells with wild-type SIK or LKB1, NAM treatment", "result": "no effect on PD-L1 levels"}
    ]}
  ]
}
